Where two headings read alike, the source gives them in different places.
Tests used:
Assay type in all cases: cell-based
Mouse splenocytes = test: Mouse Splenocyte Assay, cytokine release (HTRF); details: 24 hours, mIL6 in supernatant; for EC50: Splenocyte, read-out: Splenocyte IL6 EC50
Procedure, shortened: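 Splenocytes from female balb/c nude mice, thawed, 100,000 per well in RPMI + 10% FBS. Exposed for 24 h at 37 °C to a 4-fold 11-point compound titration from 15 μM; supernatant mIL6 and mTNFα measured by HTRF.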

mTLR7 = target: T1, mTLR7 (Mus musculus, UniProt P58681); test: Reporter Gene Assay (RGA), HEK-Blue mTLR7 reporter cells, SEAP readout; details: overnight incubation, SEAP absorbance 620 nm
T1 construct: host or cells: HEK-Blue mTLR7 reporter cells (HEK293-derived, own knowledge)
T1 sequence (P58681 27-1050): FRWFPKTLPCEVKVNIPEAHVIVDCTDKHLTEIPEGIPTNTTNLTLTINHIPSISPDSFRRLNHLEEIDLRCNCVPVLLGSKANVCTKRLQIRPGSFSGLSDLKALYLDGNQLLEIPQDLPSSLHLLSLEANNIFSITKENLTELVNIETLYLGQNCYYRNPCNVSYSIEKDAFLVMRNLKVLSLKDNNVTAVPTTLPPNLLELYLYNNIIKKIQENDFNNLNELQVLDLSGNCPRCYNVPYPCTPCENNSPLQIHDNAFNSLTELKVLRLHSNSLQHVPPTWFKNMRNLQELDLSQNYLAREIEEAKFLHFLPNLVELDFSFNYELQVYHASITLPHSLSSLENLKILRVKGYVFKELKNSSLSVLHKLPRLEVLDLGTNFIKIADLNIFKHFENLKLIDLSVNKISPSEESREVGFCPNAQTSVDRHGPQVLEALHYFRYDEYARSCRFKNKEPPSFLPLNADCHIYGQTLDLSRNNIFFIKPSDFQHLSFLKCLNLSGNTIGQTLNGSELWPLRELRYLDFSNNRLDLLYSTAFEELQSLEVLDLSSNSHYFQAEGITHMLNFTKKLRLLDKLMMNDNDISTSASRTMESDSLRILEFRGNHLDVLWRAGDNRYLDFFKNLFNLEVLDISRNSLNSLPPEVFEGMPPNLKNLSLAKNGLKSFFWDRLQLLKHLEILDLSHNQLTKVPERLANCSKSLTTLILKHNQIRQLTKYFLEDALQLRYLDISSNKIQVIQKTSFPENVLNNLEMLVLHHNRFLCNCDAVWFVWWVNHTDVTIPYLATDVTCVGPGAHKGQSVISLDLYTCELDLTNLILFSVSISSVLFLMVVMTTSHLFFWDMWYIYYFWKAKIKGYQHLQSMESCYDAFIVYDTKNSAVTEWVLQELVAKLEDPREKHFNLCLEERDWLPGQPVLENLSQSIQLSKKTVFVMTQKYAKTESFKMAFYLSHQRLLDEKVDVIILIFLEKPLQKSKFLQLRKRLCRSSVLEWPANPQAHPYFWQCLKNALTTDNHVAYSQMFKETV
Procedure, shortened: (§1)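 HEK-Blue reporter cells expressing human or mouse TLR7 (1.5×10^4 cells) were treated with an 11-point, 4-fold compound titration from 15 pM in HEK-Blue Detection medium. Incubation was overnight at 37° C with 5% CO2. Secreted embryonic alkaline phosphatase was read as absorbance at 620 nm.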

[1] = tested on: Human peripheral blood mononuclear cells (PBMCs); test: Human PBMC Assay, cytokine release (HTRF); details: PBMC, 24 hours
Procedure, shortened: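 Cryopreserved human PBMCs, rested overnight with 10 ng/ml hIL3, then 300,000 cells/well treated 24 h at 37° C with compound (4-fold, 11-point titration from 15 μM) in RPMI+10% FBS. Supernatant hIL6, hTNFα and hIFNα measured by HTRF; growth medium as negative control.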

hTLR7 = target: T2, hTLR7 (Homo sapiens, UniProt Q9NYK1); test: Reporter Gene Assay (RGA), HEK-Blue hTLR7 reporter cells, SEAP readout; details: overnight incubation, SEAP absorbance 620 nm
T2 construct: host or cells: HEK-Blue hTLR7 reporter cells (HEK293-derived, own knowledge)
T2 sequence (Q9NYK1 27-1049): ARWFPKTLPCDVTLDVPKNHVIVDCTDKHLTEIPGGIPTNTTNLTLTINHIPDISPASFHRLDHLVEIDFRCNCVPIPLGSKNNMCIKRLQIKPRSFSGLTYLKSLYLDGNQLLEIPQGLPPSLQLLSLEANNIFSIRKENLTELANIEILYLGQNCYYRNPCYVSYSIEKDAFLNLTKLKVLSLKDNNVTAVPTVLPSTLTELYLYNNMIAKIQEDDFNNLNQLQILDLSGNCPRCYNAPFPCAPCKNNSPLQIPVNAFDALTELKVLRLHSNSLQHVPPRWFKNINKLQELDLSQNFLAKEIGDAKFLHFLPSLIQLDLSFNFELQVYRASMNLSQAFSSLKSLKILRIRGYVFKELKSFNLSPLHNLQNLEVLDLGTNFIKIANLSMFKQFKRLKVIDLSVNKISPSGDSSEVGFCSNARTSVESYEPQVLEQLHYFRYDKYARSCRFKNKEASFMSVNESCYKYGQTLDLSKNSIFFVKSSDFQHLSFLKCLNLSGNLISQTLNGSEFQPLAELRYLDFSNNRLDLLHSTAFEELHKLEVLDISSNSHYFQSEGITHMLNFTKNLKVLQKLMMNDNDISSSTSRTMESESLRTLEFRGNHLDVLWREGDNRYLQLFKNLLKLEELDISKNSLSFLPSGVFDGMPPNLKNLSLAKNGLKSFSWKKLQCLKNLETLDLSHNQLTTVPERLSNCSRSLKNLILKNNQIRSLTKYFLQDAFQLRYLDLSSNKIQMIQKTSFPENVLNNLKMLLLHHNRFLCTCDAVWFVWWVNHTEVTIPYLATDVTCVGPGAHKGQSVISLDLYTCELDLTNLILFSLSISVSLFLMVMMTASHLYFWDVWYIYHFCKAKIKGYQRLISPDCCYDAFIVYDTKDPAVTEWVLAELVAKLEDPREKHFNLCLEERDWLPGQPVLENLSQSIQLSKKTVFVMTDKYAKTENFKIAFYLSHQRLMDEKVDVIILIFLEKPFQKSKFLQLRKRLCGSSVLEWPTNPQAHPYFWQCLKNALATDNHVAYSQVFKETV
Procedure, shortened: as §1

[2] = hIFNα in supernatant, EC50 values approximated and divided into groups, read-out: PBMC IFNa EC50
[3] = hIL6 in supernatant, read-out: PBMC IL6 EC50

Structure (SMILES) | EC50 (Mouse splenocytes) | EC50 (mTLR7) | EC50 (hTLR7) | Splenocyte IL6 EC50 (nM) (Mouse splenocytes) | EC50 [1, 2] | EC50 [1, 3]
CCOc1nc(N)c2nc(O)n(Cc3ccc(CNCc4ccc(CNCc5ccc(CN)cc5)cc4)cc3OC)c2n1 [Compound 146, 6-amino-9-(4-(((4-(((4-(aminomethyl)benzyl)amino)methyl)benzyl)amino)-methyl)-2-methoxybenzyl)-2-ethoxy-9H-purin-8-ol] | 12.9 nM | 28.7 nM | 5.8 nM |  | < 0.1 nM | 16.7 nM
CCOc1nc(N)c2nc(O)n(Cc3ccc(CN4CCNCC4)cc3)c2n1 [Compound 150, 6-amino-2-ethoxy-9-(4-(piperazin-1-ylmethyl)benzyl)-9H-purin-8-ol] | 2130 nM | 83.8 nM | 6.9 nM |  | 0.1 to 1 nM | 322 nM
CCOc1nc(N)c2nc(O)n(Cc3ccc(CN4CCNCC4)cc3F)c2n1 [Compound 152, 6-amino-2-ethoxy-9-(2-fluoro-4-(piperazin-1-ylmethyl)benzyl)-9H-purin-8-ol] |  | 31.7 nM | 1.3 nM | inactive | 0.1 to 1 nM | 17 nM
CCOc1nc(N)c2nc(O)n(Cc3ccc(CN4CCC(N)CC4)cc3F)c2n1 [Compound 153, 6-amino-9-(4-((4-aminopiperidin-1-yl)methyl)-2-fluorobenzyl)-2-ethoxy-9H-purin-8-ol] |  | 263 nM | 6.1 nM | inactive | > 10 nM | 39 nM
CCCCOc1nc(N)c2nc(O)n(Cc3ccc(CN4CCNCC4)cc3OC)c2n1 [Compound 154, 6-amino-2-butoxy-9-(2-methoxy-4-(piperazin-1-ylmethyl)benzyl)-9H-purin-8-ol] | 217 nM | 2.9 nM | 0.2 nM |  | > 10 nM | 1970 nM
CCCCOc1nc(N)c2nc(O)n(Cc3ccc(CN4CCC(N)CC4)cc3OC)c2n1 [Compound 155, 6-amino-9-(4-((4-aminopiperidin-1-yl)methyl)-2-methoxybenzyl)-2-butoxy-9H-purin-8-ol] | 148 nM | 9.2 nM | 0.2 nM |  | > 10 nM | 878 nM
CCCCOc1nc(N)c2nc(O)n(Cc3ccc(CN4CCC(CN)CC4)cc3OC)c2n1 [Compound 156, 6-amino-9-(4-((4-(aminomethyl)piperidin-1-yl)methyl)-2-methoxybenzyl)-2-butoxy-9H-purin-8-ol] | 2.5 nM | 0.3 nM | 0.3 nM |  | > 10 nM | 
CCCCOc1nc(N)c2nc(O)n(Cc3ccc(CN4CCC5(CCNCC5)CC4)cc3OC)c2n1 [Compound 157, 9-(4-((3,9-diazaspiro[5.5]undecan-3-yl)methyl)-2-methoxybenzyl)-6-amino-2-butoxy-9H-purin-8-ol] | 9.4 nM | 3.7 nM | 0.9 nM |  | > 10 nM | 473 nM
CCCCOc1nc(N)c2nc(O)n(Cc3ccc(CN4CCC(CCN)CC4)cc3OC)c2n1 [Compound 158, 6-amino-9-(4-((4-(2-aminoethyl)piperidin-1-yl)methyl)-2-methoxybenzyl)-2-butoxy-9H-purin-8-ol] | 3.2 nM | 0.1 nM | 0.1 nM |  | 1 to 10 nM | 
CCCCOc1nc(N)c2nc(O)n(Cc3ccc(CNCC(C)(C)O)cc3OC)c2n1 [Compound 159, 6-amino-2-butoxy-9-(4-(((2-hydroxy-2-methylpropyl)amino)methyl)-2-methoxybenzyl)-9H-purin-8-ol] | 2 nM | 2.9 nM | 1.6 nM |  | < 0.1 nM | 

More lines, main results first:

EC50 (Mouse splenocytes) | EC50 (mTLR7) | EC50 (hTLR7) | Splenocyte IL6 EC50 (nM) (Mouse splenocytes) | Structure (SMILES) | EC50 [1, 2] | EC50 [1, 3]
9.9 nM | 14.6 nM | 2.6 nM |  | CCOc1nc(N)c2nc(O)n(Cc3ccc(CNCc4ccc(CN5CCOCC5)cc4)cc3OC)c2n1 [Compound 142, 6-amino-2-ethoxy-9-(2-methoxy-4-(((4-(morpholinomethyl)benzyl)amino)-methyl)benzyl)-9H-purin-8-ol] | < 0.1 nM | 13.6 nM
9.6 nM | 15.1 nM | 0.2 nM |  | CCOc1nc(N)c2nc(O)n(Cc3ccc(CNCc4ccc(CN5CCC(NC(=O)OC(C)(C)C)CC5)cc4)cc3OC)c2n1 [Compound 143, tert-butyl-(1-(4-(((4-((6-amino-2-ethoxy-8-hydroxy-9H-purin-9-yl)methyl)-3-methoxybenzyl)amino)methyl)benzyl)piperidin-4-yl)carbamate] | < 0.1 nM | 27.1 nM
372 nM | 1330 nM | 79.5 nM |  | CCOc1nc(N)c2nc(O)n(Cc3ccc(CNCc4ccc(CN5CCC(N)CC5)cc4)cc3OC)c2n1 [Compound 144, 6-amino-9-(4-(((4-((4-aminopiperidin-1-yl)methyl)benzyl)amino)methyl)-2-methoxybenzyl)-2-ethoxy-9H-purin-8-ol] | > 10 nM | 191 nM
338 nM | 142 nM | 69 nM |  | CCOc1nc(N)c2nc(O)n(Cc3ccc(CNCc4ccc(CN5CCNCC5)cc4)cc3OC)c2n1 [Compound 145, 6-amino-2-ethoxy-9-(2-methoxy-4-(((4-(piperazin-1-ylmethyl)benzyl)amino)-methyl)benzyl)-9H-purin-8-ol] |  | 126 nM
13.2 nM | 16.9 nM | 0.9 nM |  | CCOc1nc(N)c2nc(O)n(Cc3ccc(CNCc4ccc(CNCc5ccccc5)cc4)cc3OC)c2n1 [Compound 147, 6-amino-9-(4-(((4-((benzylamino)methyl)benzyl)amino)methyl)-2-methoxy-benzyl)-2-ethoxy-9H-purin-8-ol] | < 0.1 nM | 38.8 nM
68.8 nM | 125 nM | 12.1 nM |  | CCOc1nc(N)c2nc(O)n(Cc3ccc(CNCc4ccc(CN(CC(=O)O)CC(=O)O)cc4)cc3OC)c2n1 [Compound 151, 2,2′-((4-(((4-((6-amino-2-ethoxy-8-hydroxy-9H-purin-9-yl)methyl)-3-methoxy-benzyl)amino)methyl)benzyl)azanediyl)diacetic Acid] | > 10 nM | 59.2 nM
